From patent publication US7385103B2, “Animal model, cells, and treatment for malignant melanoma” (Rutgers, the State University, priority 2004, dated 2008)

Assays:
[1] = test system: Grm1-mediated ERK1/2 activation; test: ERK1/2 phosphorylation in melanoma cells, western blot with phospho-ERK1/2 antibodies; format: cell-based, mouse; settings: for phosphorylation of ERK1/2: 10^−5 M
Procedure: To examine whether ERK1/2 were activated after Grm1 activation, cells were treated for the indicated times with the agonist Quisqualate. After treatment, melanoma cells were lysed and the activation of ERK1/2 was determined using antibodies against the phosphorylated forms of ERK1/2.
Melanoma cells lines were transiently transfected with dominant-negative mutants of Grm1 and expression of the Grm1 mutants was analyzed by western blot analysis.
Upon IP3 accumulation in cells, calcium is released from the endoplasmic reticulum to the cytoplasm, allowing these ions to act as second messengers that bind to calmodulin and further activate calcium-calmodulin-dependent kinases that are capable of activating mitogen-activated protein kinases (MAPKS) (Soderling (1999) Trends Biochem. Sci. 24(6):232-6). Accordingly, it was determined whether IP3 accumulation in the tumor cell lines disclosed herein, upon Grm1 agonist treatment, would yield intracellular calcium signaling that could affect ERK activation. Depletion of intracellular calcium in these cells was obtained by chelating extracellular calcium with EGTA, which obligates calcium to exit the cell in order to maintain calcium homeostasis.
PIP2 hydrolysis resulting from Grm1 activation leads to the production of IP3 and DAG. DAG can then activate protein kinase C (PKC). […] Thus, it was determined whether the activation of ERK1/2 by Grm1 is also mediated by PKC in the tumor cell lines disclosed herein.
To have a minimum amount of the natural ligand (glutamate) present in the growth medium, customized glutamine- and glutamate-free RPMI (RPMI-glu) was used (INVITROGEN™, Carlsbad, Calif.). GLUTAMAX™ (INVITROGEN™), a substitute for glutamate and glutamine, was added to the growth medium at a final concentration of 2 mM, and 10% dialyzed fetal calf serum (INVITROGEN™) was used to supplement the medium. For induction with Grm1 agonist, quisqualate, the cells were grown in RPMI-glu for 3-4 days, plated at 3×10^5 cells per 60-mm plate and serum starved overnight. Several concentrations of quisqualate (10^−4 M to 10^−6 M) and several time points (30 seconds to 120 minutes) were tested for optimal induction. For Grm1 antagonist effects, cells were pretreated for 30 minutes with 10^−5 M of LY367385 before agonist treatment. For PKC inhibitor (RO-31-8220) and calcium chelators (EGTA, BAPTA-AM), cells were pretreated for indicated times before agonist challenge.
Proteins were extracted using lysis buffer (50 mM Tris-HCl, 150 mM NaCl, 1 mM EDTA, 1% NP-40, 5% glycerol, and 1 mM dithiothreitol, pH 7.4) and protease inhibitors (Complete protease inhibitor cocktail tablets, Roche Molecular Biochemicals, Indianapolis, Ind.). Protein concentrations were measured using the BIO-RAD® DC Protein Assay kit (Bio-Rad, Hercules, Calif.). Equal amounts of lysates were loaded in each lane in 7.5 or 10% polyacrylamide gels (BIO-RAD®, Hercules, Calif.). Proteins were transferred to nitrocellulose membranes (Osmonics, Minnetonka, Minn.). Ponceau Red staining of membranes, after transfer, was performed to verify equivalent amounts of protein between samples. Anti-PERK, ERK, PhosphoPKC isoforms, PKC isoforms antibodies were obtained from Cell Signaling Technology, Inc. (Beverly, Mass.).

melanoma cell lines = test: establishment of melanoma cell lines from amelanotic ear tumors in culture; format: cell-based, mouse
Procedure: To further analyze the signaling events mediated by Grm1 in transformed melanocytes, cell lines derived from ear tumor bearing albino mice (Cohen-Salal, et al. (2001) supra) were generated. Tumors from these mice were sectioned in two halves. Protein extraction was performed on one part of the tumors and western immunoblots were done to verify the ectopic expression of Grm1. The other half of the tumor was used to generate homogeneous in vitro melanoma cell lines by gentle selection of melanocyte cells over keratinocytes and fibroblasts through differential geneticin resistance. Initial efforts to directly establish cell lines on standard culture medium supplemented with geneticin were unsuccessful. […] Based on morphology and growth rate, 10^−5 M quisqualate was sufficient to establish growth in culture. […] Ten cells lines namely LL1A, LL1T, Nu1, Nu2, MMB3A, MMB3T, 4045A, 4045T, 4046T, 4046A, were successfully generated from at least six independent mice tumors. Given that these mouse melanoma cell lines behave very similarly in culture, data presented herein is of representative cell lines. […] Cytoplasmic staining for Grm1 has also been reported in other cellular systems (Tadokoro, et al. (1999) Proc. Natl. Acad. Sci. USA 96:13801-13806). To verify the melanocytic origin of these cells, co-staining of the cells was performed with Tyrp-1. […]

CC(=O)OCOC(=O)CN(CC(=O)OCOC(C)=O)c1ccccc1OCCOc1ccccc1N(CC(=O)OCOC(C)=O)CC(=O)OCOC(C)=O [BAPTA-AM]
ERK activation by quisqualate ([1]; preincubation 30 minutes prior to agonist challenge, in calcium-free media): completely abolished
ERK activation by quisqualate ([1]; preincubation 30 minutes prior to agonist challenge, in the presence of extracellular calcium): dose-dependent decrease in ERK activation

Cc1cc(C(=O)O)ccc1[C@H](N)C(=O)O [LY367385]
activation of ERK1/2 by quisqualate ([1]; melanoma lines pretreated 30 minutes with antagonist (10^−5 M) before agonist challenge): abrogated

O=C(O)CN(CCOCCOCCN(CC(=O)O)CC(=O)O)CC(=O)O [EGTA]
ERK activation by quisqualate ([1]; chelating extracellular calcium to deplete intracellular calcium): time-dependent decrease in ERK activation

N[C@@H](Cn1oc(=O)[nH]c1=O)C(=O)O [quisqualate, L-quisqualate]
phosphorylation of ERK1/2 ([1]; after 5 minutes of tumor cell stimulation): increase in the phosphorylation of ERK1/2
phosphorylation of ERK1/2 ([1]; after 15 minutes of stimulation): reduced to background levels
quisqualate concentration sufficient to establish growth in culture (melanoma cell lines; based on morphology and growth rate): 10^−5 M
establishment of melanoma cell lines on addition to culture medium (melanoma cell lines; culture medium supplemented with geneticin): enabled the establishment of melanoma cell lines

B1: siRNA: siRNA specific for Grm1 nucleic acid, templates SEQ ID NO:3 (top strand) and SEQ ID NO:4 (bottom strand) (nucleic acid)
sense: GATCCCGTGGACGGAGATGTCATCATTTCAAGAGAATGATGACATCTCCGTCCATTTTTTGGAAA
antisense: GCTTTTCCAAAAAATGGACGGAGATGTCATCATTCTCTTGAAATGATGACATCTCCGTCCACGG
modifications: expressed or natural sequence; the letters are possibly those of the target site
ERK activation by Grm1 agonist ([1]; transfected melanoma cells, compared to cells transfected with an unrelated siRNA sequence): inhibited ERK activation
